The source of these data is patent US12037346B2, “Amino-substituted heteroaryls for treating cancers with EGFR mutations” (Nuvalent, Inc., priority 2021, dated 2024).

As usually defined, the IC50 is the concentration at which inhibition is half-maximal. A higher IC50 goes with a need for much substance.

Ba/F3 HER2-YVMA cells (HER2-A775_G776insYVMA), sequence (P04626 with tags, fused parts or gaps DUP772-775): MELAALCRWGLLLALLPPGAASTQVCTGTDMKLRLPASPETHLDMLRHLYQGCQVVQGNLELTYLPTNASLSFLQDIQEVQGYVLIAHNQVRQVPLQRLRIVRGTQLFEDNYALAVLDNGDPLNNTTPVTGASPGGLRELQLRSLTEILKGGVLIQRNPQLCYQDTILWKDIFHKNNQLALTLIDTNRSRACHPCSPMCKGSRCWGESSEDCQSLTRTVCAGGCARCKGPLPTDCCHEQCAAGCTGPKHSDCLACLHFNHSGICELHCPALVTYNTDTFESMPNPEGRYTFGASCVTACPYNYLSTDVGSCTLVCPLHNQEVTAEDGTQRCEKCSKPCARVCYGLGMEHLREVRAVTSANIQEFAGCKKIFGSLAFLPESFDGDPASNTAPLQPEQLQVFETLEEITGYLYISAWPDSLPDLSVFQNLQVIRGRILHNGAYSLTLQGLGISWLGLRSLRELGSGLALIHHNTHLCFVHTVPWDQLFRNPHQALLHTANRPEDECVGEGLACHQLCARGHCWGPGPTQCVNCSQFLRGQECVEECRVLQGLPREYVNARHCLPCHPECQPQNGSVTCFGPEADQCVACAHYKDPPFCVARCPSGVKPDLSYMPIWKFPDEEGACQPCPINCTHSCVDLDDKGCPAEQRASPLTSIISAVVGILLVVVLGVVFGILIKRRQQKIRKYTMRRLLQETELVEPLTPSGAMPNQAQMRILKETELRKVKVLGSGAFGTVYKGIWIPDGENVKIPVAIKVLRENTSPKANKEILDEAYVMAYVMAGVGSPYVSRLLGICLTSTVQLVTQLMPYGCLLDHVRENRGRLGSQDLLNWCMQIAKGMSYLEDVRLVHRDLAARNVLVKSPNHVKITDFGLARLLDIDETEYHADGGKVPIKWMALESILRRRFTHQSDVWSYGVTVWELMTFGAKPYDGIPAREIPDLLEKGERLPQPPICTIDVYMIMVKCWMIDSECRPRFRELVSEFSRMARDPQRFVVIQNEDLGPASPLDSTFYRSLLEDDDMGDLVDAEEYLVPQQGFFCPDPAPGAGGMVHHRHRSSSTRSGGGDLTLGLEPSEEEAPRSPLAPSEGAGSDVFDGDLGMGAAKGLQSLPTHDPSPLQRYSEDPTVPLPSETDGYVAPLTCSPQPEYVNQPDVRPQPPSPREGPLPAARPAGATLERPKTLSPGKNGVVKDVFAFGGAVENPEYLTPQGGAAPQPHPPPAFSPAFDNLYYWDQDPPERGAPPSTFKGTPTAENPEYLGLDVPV

One assay has as its system A431 cells (amplification of the wild-type EGFR gene), phospho-ERK Thr202/Tyr204. Description: Cellular phosphorylation assay, pERK (phospho-ERK Thr202/Tyr204 AlphaLISA) in A431. The assay is classed as cell-based. Particulars: Homo sapiens, A-431, compound incubated for 5 hours. As to the method:
(§1) Besides Ba/F3s, two commercially available cell lines were also used. NCI-H1781 is a HER2 exon20 insertion cell line bearing HER2-A775_G776insV-G776C. A431 bears amplification of the wild-type EGFR gene.
(§2) Ba/F3 cells were plated at 50,000 cells/well (40 μL), or NCI-H1781 cells or A431 cells were plated at 12,500 cells/well (40 μL), in a 384-well plate for 1 day. Test compounds (40 nL) were then added in a 3-fold dilution series using the TECAN EV0200 liquid handler and incubated for 5 hours. Only for pEGFR analysis in A431, the cells were briefly stimulated with EGF (30 ng/mL) for 15 minutes. Media were removed using Apricot Designs. Phosphoproteins were analyzed using the phospho-EGFR Tyr1068 AlphaLISA kit (“pEGFR”; PerkinElmer #ALSU-PEGFR-B10K;) phospho-ERK Thr202/Tyr204 AlphaLISA kit (“pERK”; PerkinElmer #ALSU-PERK-A10K) or the phospho-ErbB2 Tyr1221/1222 AlphaLISA kit (“pHER2”; PerkinElmer #ALSU-PEB2-A10K;) according to the manufacturer's instructions. Briefly, cells were lysed with lysis buffer (10 μL) containing protease-inhibitor and phosphatase-inhibitor cocktails. The lysates were transferred into a new optical plate, incubated with the acceptor mix (5 μL) for 1.5-2 hours at room temperature in darkness, and then mixed with the donor mix (5 μL) overnight in darkness. Fluorescence was measured on a plate reader using the appropriate AlphaLISA settings. Half-maximal inhibitory concentration (IC50) was calculated from percent inhibition and inhibitor concentration using four-parameter logistic regression. […]
In the case of `C=CC(=O)N1CCN(c2ncc3ncnc(Nc4ccc(Oc5ccn6ncnc6c5)c(Cl)c4F)c3n2)C[C@H]1C` [Example 82], the IC50 was 100 to 500 nM.
The compound `Cc1c(Oc2ccn3ncnc3c2)ccc(Nc2ncnc3cnc(C4=C[C@@H](C)N(C(=O)/C=C/CN(C)C)CC4)nc23)c1F` [Example 83] returned an IC50 of 100 to 500 nM.
Consider `C=CC(=O)N1CCN(c2ncc3ncnc(Nc4ccc(Oc5ccc6c(c5)ncn6C)c(C)c4F)c3c2F)C[C@H]1C` [Example 84], for which the half-inhibitory concentration (IC50) was 100 to 500 nM.
The compound `C=CC(=O)N1CC=C(c2ccc3ncnc(Nc4ccc(Oc5ccn6ncnc6c5)c(C)c4)c3n2)C[C@@H]1C` [Example 85] yielded an IC50 of at least 1000 nM.
For the compound `C=CC(=O)N1CC=C(c2ccc3ncnc(Nc4ccc(Oc5ccn6ncnc6c5)c(C)c4)c3n2)C[C@H]1C` [Example 86], the IC50 fell in the range of 100 to 500 nM.
For the compound `C=CC(=O)N1CCC(c2ncc3ncnc(Nc4ccc(Oc5ccn6ncnc6c5)c(C)c4)c3n2)=C[C@@H]1C` [Example 94], the IC50 is at least 1000 nM.
In turn, `C=CC(=O)N1CC=C(c2ncc3ncnc(Nc4ccc(Oc5ccn6ncnc6c5)c(C)c4)c3n2)C[C@@H]1C` [Example 95] showed an IC50 of at least 1000 nM.
In turn, `C=CC(=O)N1CCC(c2ncc3ncnc(Nc4ccc(Oc5cc(C)n6ncnc6c5)c(C)c4F)c3n2)=C[C@@H]1C` [Example 96] showed an IC50 of at least 1000 nM.
Still for that read-out and setting: under `C=CC(=O)N1CCN(c2ncc3ncnc(Nc4ccc(Oc5ccn6ncnc6c5)c(C)c4F)c3n2)[C@H](C)[C@H]1C` [Example 100] stands 100 to 500 nM.

The target in another assay is T1, wild-type EGFR (A431 cells) (Homo sapiens, UniProt P00533).
T1 construct: A431 bears amplification of the wild-type EGFR gene; endogenous in cells; host or cells: A431
T1 sequence (P00533 25-1210): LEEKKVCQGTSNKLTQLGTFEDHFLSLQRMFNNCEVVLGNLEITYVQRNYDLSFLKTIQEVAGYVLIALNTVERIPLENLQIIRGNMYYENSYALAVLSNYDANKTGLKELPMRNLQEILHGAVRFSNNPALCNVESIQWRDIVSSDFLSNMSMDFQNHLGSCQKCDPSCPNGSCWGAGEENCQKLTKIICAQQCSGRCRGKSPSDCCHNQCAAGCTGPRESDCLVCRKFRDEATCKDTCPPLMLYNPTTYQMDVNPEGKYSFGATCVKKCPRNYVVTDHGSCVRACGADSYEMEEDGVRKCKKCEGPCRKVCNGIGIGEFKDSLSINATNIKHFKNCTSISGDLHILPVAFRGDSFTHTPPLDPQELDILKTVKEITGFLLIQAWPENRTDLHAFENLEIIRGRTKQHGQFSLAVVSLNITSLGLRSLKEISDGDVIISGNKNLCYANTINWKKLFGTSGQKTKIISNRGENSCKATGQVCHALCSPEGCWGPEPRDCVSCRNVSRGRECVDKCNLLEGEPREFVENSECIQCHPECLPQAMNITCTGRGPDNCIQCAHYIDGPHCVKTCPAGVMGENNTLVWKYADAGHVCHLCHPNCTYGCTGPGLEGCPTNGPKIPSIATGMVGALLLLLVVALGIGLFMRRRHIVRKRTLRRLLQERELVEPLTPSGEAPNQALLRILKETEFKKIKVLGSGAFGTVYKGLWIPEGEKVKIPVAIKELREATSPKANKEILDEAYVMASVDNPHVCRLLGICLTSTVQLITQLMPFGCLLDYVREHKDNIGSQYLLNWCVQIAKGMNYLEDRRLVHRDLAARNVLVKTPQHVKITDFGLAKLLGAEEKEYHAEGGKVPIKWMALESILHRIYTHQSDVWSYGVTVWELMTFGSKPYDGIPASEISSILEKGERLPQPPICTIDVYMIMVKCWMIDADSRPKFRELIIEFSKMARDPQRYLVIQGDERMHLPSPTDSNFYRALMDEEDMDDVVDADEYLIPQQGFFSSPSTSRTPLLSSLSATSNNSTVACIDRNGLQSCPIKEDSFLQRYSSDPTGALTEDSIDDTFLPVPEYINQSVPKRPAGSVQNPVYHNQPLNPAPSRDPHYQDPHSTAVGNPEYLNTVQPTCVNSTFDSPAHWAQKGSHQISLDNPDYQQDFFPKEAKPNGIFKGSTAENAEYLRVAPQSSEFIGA
Description: Cellular phosphorylation assay, pEGFR (phospho-EGFR Tyr1068 AlphaLISA) in A431. The format is cell-based. Particulars: compound incubated for 5 hours, EGF (30 ng/mL) for 15 minutes. As to the method: as §1, §2
On the technique in general: Bead proximity is the source of the signal in Alpha formats.
`C=CC(=O)N1CC=C(c2ccc3ncnc(Nc4cc(C)c(Oc5ccn6ncnc6c5)cc4F)c3n2)CC1` [Example 11] yielded an IC50 of at least 1000 nM.
Still for that read-out and setting: for `C=CC(=O)N1CCN(c2ccc3ncnc(Nc4ccc(Oc5ccn6ncnc6c5)c(C)c4)c3c2F)CC1` [Example 29] the value was at least 1000 nM; for `C=CC(=O)N1CCN(c2ncc3ncnc(Nc4cc(C)c(Oc5ccn6ncnc6c5)cc4F)c3n2)[C@H](C)C1` [Example 34], at least 1000 nM; for `C=CC(=O)N1CC=C(c2ncc3ncnc(Nc4cc(C)c(Oc5ccn6ncnc6c5)cc4F)c3n2)CC1` [Example 38], at least 1000 nM.
`C=CC(=O)N1CC=C(c2ncc3ncnc(Nc4ccc(Oc5ccn6ncnc6c5)c(C)c4F)c3n2)C[C@@H]1C` [Example 42] yielded an IC50 of at least 1000 nM.
`C=CC(=O)N1C[C@@H](C)N(c2ncc3ncnc(Nc4ccc(Oc5ccn6ncnc6c5)c(C)c4F)c3n2)C[C@H]1C` [Example 44] came in with an IC50 of at least 1000 nM.
Still for that read-out and setting: under `C=CC(=O)N1CCN(c2ncc3ncnc(Nc4ccc(Oc5ccn6ncnc6c5)c(Cl)c4F)c3n2)C[C@H]1C` [Example 82] stands below 100 nM.
Same read-out and setting: for `Cc1c(Oc2ccn3ncnc3c2)ccc(Nc2ncnc3cnc(C4=C[C@@H](C)N(C(=O)/C=C/CN(C)C)CC4)nc23)c1F` [Example 83] the value was 100 to 500 nM.
For the compound `C=CC(=O)N1CCN(c2ncc3ncnc(Nc4ccc(Oc5ccc6c(c5)ncn6C)c(C)c4F)c3c2F)C[C@H]1C` [Example 84], the IC50 was in the range of 500 to 1000 nM.
The compound `C=CC(=O)N1CC=C(c2ccc3ncnc(Nc4ccc(Oc5ccn6ncnc6c5)c(C)c4)c3n2)C[C@@H]1C` [Example 85] displayed an IC50 of at least 1000 nM.
`C=CC(=O)N1CC=C(c2ccc3ncnc(Nc4ccc(Oc5ccn6ncnc6c5)c(C)c4)c3n2)C[C@H]1C` [Example 86] returned an IC50 of 100 to 500 nM.
The compound `C=CC(=O)N1CCC(c2ncc3ncnc(Nc4ccc(Oc5ccn6ncnc6c5)c(C)c4)c3n2)=C[C@@H]1C` [Example 94] registered an IC50 of 500 to 1000 nM.
For the compound `C=CC(=O)N1CC=C(c2ncc3ncnc(Nc4ccc(Oc5ccn6ncnc6c5)c(C)c4)c3n2)C[C@@H]1C` [Example 95], the IC50 was at least 1000 nM.
Same read-out and setting: under `C=CC(=O)N1CCC(c2ncc3ncnc(Nc4ccc(Oc5cc(C)n6ncnc6c5)c(C)c4F)c3n2)=C[C@@H]1C` [Example 96] stands at least 1000 nM; under `C=CC(=O)N1CCN(c2ncc3ncnc(Nc4ccc(Oc5ccn6ncnc6c5)c(C)c4F)c3n2)[C@H](C)[C@H]1C` [Example 100], at least 1000 nM.

The target of a further assay is Ba/F3 HER2-YVMA cells (HER2-A775_G776insYVMA) (Homo sapiens, UniProt P04626, DUP772-775, cells depend on it). Description: Cell proliferation assay (CellTiter-Glo), Ba/F3 HER2-YVMA. The assay is classed as cell-based. The conditions noted are these: read-out: Ba/F3 HER2-YVMA cell proliferation IC50. The procedure:
The gene encoding HER2-A775_G776insYVMA (“HER2-YVMA”) was synthesized at GeneRay, cloned into the retroviral construct pMSCV-puro (Biovector), and packaged into retroviral particles. The virus was used to infect Ba/F3 cells (RIKEN) at multiplicity of infection=1 or 10 for 1 day. Infected cells were rescued in media (RPMI-1640 with 10% fetal bovine serum and 1% streptomycin and penicillin) supplemented with mouse IL-3 (10 ng/mL) for 2 days, and stable cell lines were selected by IL-3 withdrawal and puromycin (0.8 μg/mL) for 7 days. Monoclones were selected by single-cell dilution in IL-3-free medium containing puromycin ([…]). Transformation of desired genes was confirmed by Sanger sequencing and western blot using the following antibody: HER2 (CST #2242).
(§3) Ba/F3 cells were plated at 1,000 cells/well (40 μL), or NCI-H1781 or A431 cells were plated at 2,000 cells/well (40 μL), in a 384-well plate for 1 day. Test compounds (40 nL) were then added in a 3-fold dilution series using the TECAN EV0200 liquid handler and incubated for 48 hours (“2 days”), 72 hours (“3 days”), or 48 hours followed by renewal of compound solutions and further incubation for 72 hours (“2 days/3 days”). The 72-hour assay was necessary for NCI-H1781 cells, which are slow-growing, and the resupply of fresh compounds on day 3 obviated the potential confounding effects arising from compound degradation in cell media over 72 hours. Plates were equilibrated at room temperature for 15 minutes followed by addition of 40 μL CellTiter-Glo reagent (Promega). Luminescence was measured on a plate reader. Half-maximal inhibitory concentration (IC50) was calculated from percent inhibition and inhibitor concentration using four-parameter logistic regression. […] In these cases, the regression curve was drawn only for the first inflexion to accurately measure on-target growth inhibitory effect.
(§4) Ba/F3, NCI-H1781, and A431 proliferation is driven by the oncogenes in the same way that cancer cell proliferation in humans is driven by the expression of equivalent oncogenes.
In general terms: ATP-based viability assays read luminescence as a measure of living cells.
For the compound `C=CC(=O)N1CC=C(c2ccc3ncnc(Nc4cc(C)c(Oc5ccn6ncnc6c5)cc4F)c3n2)CC1` [Example 11], the GI50 is below 100 nM.
For `C=CC(=O)N1CCN(c2ccc3ncnc(Nc4ccc(Oc5ccn6ncnc6c5)c(C)c4)c3c2F)CC1` [Example 29], the GI50 is below 100 nM.
Take `C=CC(=O)N1CCN(c2ncc3ncnc(Nc4cc(C)c(Oc5ccn6ncnc6c5)cc4F)c3n2)[C@H](C)C1` [Example 34]: the GI50 was 100 to 500 nM.
Take `C=CC(=O)N1CC=C(c2ncc3ncnc(Nc4cc(C)c(Oc5ccn6ncnc6c5)cc4F)c3n2)CC1` [Example 38]: the GI50 is 100 to 500 nM.
For the compound `C=CC(=O)N1CC=C(c2ncc3ncnc(Nc4ccc(Oc5ccn6ncnc6c5)c(C)c4F)c3n2)C[C@@H]1C` [Example 42], the GI50 was below 100 nM.
`C=CC(=O)N1C[C@@H](C)N(c2ncc3ncnc(Nc4ccc(Oc5ccn6ncnc6c5)c(C)c4F)c3n2)C[C@H]1C` [Example 44]: the GI50 was 100 to 500 nM.
Same read-out and setting: for `C=CC(=O)N1CCN(c2ncc3ncnc(Nc4ccc(Oc5ccn6ncnc6c5)c(Cl)c4F)c3n2)C[C@H]1C` [Example 82] the value was below 100 nM; for `Cc1c(Oc2ccn3ncnc3c2)ccc(Nc2ncnc3cnc(C4=C[C@@H](C)N(C(=O)/C=C/CN(C)C)CC4)nc23)c1F` [Example 83], below 100 nM; for `C=CC(=O)N1CCN(c2ncc3ncnc(Nc4ccc(Oc5ccc6c(c5)ncn6C)c(C)c4F)c3c2F)C[C@H]1C` [Example 84], below 100 nM.
Turning to `C=CC(=O)N1CC=C(c2ccc3ncnc(Nc4ccc(Oc5ccn6ncnc6c5)c(C)c4)c3n2)C[C@@H]1C` [Example 85], the GI50 is below 100 nM.
As for `C=CC(=O)N1CC=C(c2ccc3ncnc(Nc4ccc(Oc5ccn6ncnc6c5)c(C)c4)c3n2)C[C@H]1C` [Example 86], the GI50 was below 100 nM.
Regarding `C=CC(=O)N1CCC(c2ncc3ncnc(Nc4ccc(Oc5ccn6ncnc6c5)c(C)c4)c3n2)=C[C@@H]1C` [Example 94], the GI50 is below 100 nM.
For `C=CC(=O)N1CC=C(c2ncc3ncnc(Nc4ccc(Oc5ccn6ncnc6c5)c(C)c4)c3n2)C[C@@H]1C` [Example 95], the GI50 is below 100 nM.
Turning to `C=CC(=O)N1CCC(c2ncc3ncnc(Nc4ccc(Oc5cc(C)n6ncnc6c5)c(C)c4F)c3n2)=C[C@@H]1C` [Example 96], the GI50 was in the range of 100 to 500 nM.
Take `C=CC(=O)N1CCN(c2ncc3ncnc(Nc4ccc(Oc5ccn6ncnc6c5)c(C)c4F)c3n2)[C@H](C)[C@H]1C` [Example 100]: the GI50 is below 100 nM.

A further assay relates to NCI-H1781 cells (HER2-A775_G776insV-G776C). Description: Cell proliferation assay (CellTiter-Glo), NCI-H1781. The assay is classed as cell-based. Particulars: first inflexion of biphasic curve. As to the method: as §1, §3, §4
For `C=CC(=O)N1CC=C(c2ccc3ncnc(Nc4cc(C)c(Oc5ccn6ncnc6c5)cc4F)c3n2)CC1` [Example 11], the IC50 lay in the range of 100 to 500 nM.
Compound `C=CC(=O)N1CCN(c2ccc3ncnc(Nc4ccc(Oc5ccn6ncnc6c5)c(C)c4)c3c2F)CC1` [Example 29] had an IC50 below 100 nM.
`C=CC(=O)N1CCN(c2ncc3ncnc(Nc4cc(C)c(Oc5ccn6ncnc6c5)cc4F)c3n2)[C@H](C)C1` [Example 34] came in with an IC50 of 100 to 500 nM.
`C=CC(=O)N1CC=C(c2ncc3ncnc(Nc4cc(C)c(Oc5ccn6ncnc6c5)cc4F)c3n2)CC1` [Example 38] gave an IC50 of 100 to 500 nM.
In the case of `C=CC(=O)N1CC=C(c2ncc3ncnc(Nc4ccc(Oc5ccn6ncnc6c5)c(C)c4F)c3n2)C[C@@H]1C` [Example 42], the IC50 was below 100 nM.
On to `C=CC(=O)N1C[C@@H](C)N(c2ncc3ncnc(Nc4ccc(Oc5ccn6ncnc6c5)c(C)c4F)c3n2)C[C@H]1C` [Example 44], for which the IC50 fell in the range of 100 to 500 nM.
